“Also recorded” adds a separate entry of the source. A value given as a limit tells only on which side of the number the result lay.

Data on five compounds can be found in US7655396B1, “Methods for detecting receptor modulator activity” (Allergan, Inc., priority 2006, dated 2010).

In the assay the target is T1, mouse alpha 2B receptor (m α2B) (Mus musculus, UniProt P30545).
T1 construct: expressed in transfected cells
T1 sequence (P30545 1-453): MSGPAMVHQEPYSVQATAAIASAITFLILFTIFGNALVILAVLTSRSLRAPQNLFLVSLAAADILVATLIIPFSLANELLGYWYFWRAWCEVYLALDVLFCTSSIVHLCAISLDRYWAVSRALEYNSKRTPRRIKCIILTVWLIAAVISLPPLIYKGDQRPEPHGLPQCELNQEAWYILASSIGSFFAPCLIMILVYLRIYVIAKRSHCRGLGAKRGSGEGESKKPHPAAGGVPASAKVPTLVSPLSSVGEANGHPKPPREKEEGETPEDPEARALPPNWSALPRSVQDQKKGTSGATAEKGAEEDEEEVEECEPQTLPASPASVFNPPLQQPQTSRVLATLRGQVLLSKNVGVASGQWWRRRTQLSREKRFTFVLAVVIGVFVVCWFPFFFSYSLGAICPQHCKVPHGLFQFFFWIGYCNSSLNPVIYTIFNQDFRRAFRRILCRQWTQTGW
Nature of the assay: FLIPR calcium flux assay in HEK 293 m α2B/Gqi5 cells (Fluo-4 dye). It counts as cell-based. Particulars: for activity (ratio of peak height divided by background fluorescence): FIGS. 3A-3C, room temperature, 1 to 10^4 nM, 384 well, FLIPR buffer without HEPES, commercial screening company. The text has this: This example describes the methodology used in assaying compounds for the ability to modulate the α2B receptor in a high throughput assay format in which the “readout” is the measurement of a change in intracellular calcium flux due to the use of the “promiscuous” Gqi5 hybrid G-protein, linking the α2B receptor (normally coupled to the adenylyl cyclase pathway) to the PLC pathway. Changes in intracellular calcium flux are monitored using a dye that becomes fluorescent when it binds free Ca^++ ion.
HEK 293 cells are stably co-transfected with two plasmids, the first encoding the mouse alpha 2B receptor (m α2B), and the second encoding the hybrid Gqi5 protein. […] The nucleotide sequence encoding the human Gqi5 protein is contained in the reference Aiyar et al., Human AT1 receptor is a single copy gene: characterization in a stable cell line. Mol. Cell. […] These references are hereby all incorporated by reference herein. […]
Each well of cells (in a 96 well microtiter dish) is assayed for activity in the FLIPR assay using the Fluo-4® calcium indicator dye to detect calcium flux. The structure of this dye, which can be purchased from Molecular Probes, Inc., is as follows:
The cells are loaded with this dye using the manufacturer's recommendations, and washed 3× with FLIPR Buffer. Assays are conducted at room temperature (unless otherwise indicated in the following examples). […] Only cells releasing Ca++ into the cytosol of the cells (thereby permitting Ca++ binding to the Fluo-4 dye) will have increased fluorescent emission at 520 nm.
Images of the illuminated cells are captured with a charge-coupled device (CCD) camera; CCD technology is adapted for producing high-resolution images in conditions of ultra low light. Images are collected at the rate of 60 images/minute (1 image per second) in each well. After 10 seconds, 50 μl of the test compound is pipetted into the well, and further images are collected at 1 second intervals for an additional 60 seconds, then at 15 second intervals for 4 minutes. Test compounds are prepared from 10^-2 M stocks in DMSO. Compounds are diluted in the FLIPR buffer to a final DMSO concentration of about 1%.
All images are stored on a computer hard drive for later retrieval and analysis.

Where [1] appears, read: FIG. 2, second experiment, 35° C., norepinephrine standard.
[2] abbreviates: FIG. 1, assay carried out at 35° C., 96 well.

As to `COc1ccccc1N1CCN(CCN2C(=O)c3ccccc3C(C)(C)C2=O)CC1` [ARC 239, reference compound], the “activity (ratio of peak height divided by background fluorescence)” value is “showed no ability to stimulate alpha 2B receptor activity”.

As for norepinephrine [reference compound], the “activity (ratio of peak height divided by background fluorescence)” value is recorded as “showed an activity ratio above background; also recorded: shows activity above background”. Under setting [1], the relative efficacy is on record as 90%.

A word on the EC50: it is the concentration needed to bring the measured effect to its halfway point. In the case of `c1ncc(CC2CCC3=C(CCCC3)C2)[nH]1` (centres unmarked) [Compound 1], the “activity (ratio of peak height divided by background fluorescence)” value was “do not show activity to any significant degree”. For the same compound, under “32° C., FIG. 4B”, the EC50 stood at 302 nM and the relative efficacy is on record as 30%. Further, for the setting “35° C., FIG. 4C”, the EC50 was 321 nM and the relative efficacy is given as 40%. Where the note is “37° C., FIG. 4D”, the EC50 was found to be 67 nM and the relative efficacy is 40%. Also, under setting [2], the concentration giving a half-maximal response (EC50) was 238 nM and the “relative efficacy compared to a norepinephrine standard” value is listed as 40%. In addition, where the note is “Room Temp., FIG. 4A”, the EC50 was found to be 305 nM and the relative efficacy stood at 12%.

Regarding `OCCNC(=S)NCc1cccc(Cl)c1F` [Compound 2], the “activity (ratio of peak height divided by background fluorescence)” value is on record as “shows no activity; also recorded: very modest activity only at very high concentrations; also recorded: do not show activity to any significant degree”. For the same compound, under “32° C., FIG. 4B”, the EC50 turned out to be 337 nM and the relative efficacy is recorded as 32%. For the setting “35° C., FIG. 4C”, the EC50 worked out at 318 nM and the relative efficacy is listed as 31%. Under “37° C., FIG. 4D”, the EC50 came out at 65 nM and the relative efficacy is 30%. For the same compound, under setting [2], the half-maximal effective concentration (EC50) worked out at 242 nM and the “relative efficacy compared to a norepinephrine standard” value is on record as 35%. Further, the EC50 (Room Temp., FIG. 4A) was greater than 1000 nM.

With `O=C1C2=C(CCCC2)CCC1CC1CN=CN1` (centres unmarked) [Compound 3], the EC50 (FIG. 2, second experiment, 35° C., 96 well) stood at 129 nM. The relative efficacy under setting [1] worked out at 31%.
